Measured values as given in US10391150B2, “Treatments for migraine and related disorders” (The University of Chicago, priority 2011, dated 2019).
Entries after “also recorded” stand apart in the source; their conditions may differ. Read-outs that look alike come from different tables or passages of the source.

What was measured:
Assay type in all cases: cell-based, rat
[1] = test system: OS in microglia and astrocytes of hippocampal slice cultures; test: Cell-specific OS from SD (CellROX, confocal microscopy); conditions: IGF-1 100 ng/mL for three days
Text: FIG. 13 Oxidative stress from SD preferentially rises in astrocytes and microglia, with the latter effect mitigated by IGF-1. The inventors have recently shown that spreading depression (SD), the most likely cause of migraine aura and perhaps migraine (Lauritzen and Kraig, 2005), occurs with increased oxidative stress (OS) and that OS, in turn, increases SD susceptibility (Grinberg et al., 2012). Reactive oxygen and nitrogen species that cause OS have both autocrine and paracrine signaling capacities that can affect SD susceptibility by altering excitability (Kishida and Klann, 2007). Accordingly, the inventors looked for the cellular origin of OS from SD. Here the inventors used hippocampal slice cultures (HSC) to probe for cell-specific changes in OS from SD. SD was induced trans-synaptically in rat HSCs using bipolar electrical stimuli at the dentate gyrus (Pusic et al., 2011). Six SDs were induced every 7-9 min over an hr, followed by 24 hr incubation in CellROX™, a fixable fluorogenic probe for measuring OS (Grinberg et al., 2012). HSCs were then fixed in 10% buffered formalin phosphate. Other fixatives (PLP, 4% paraformaldehyde) prevented detection of OS change. Tissue was then labeled for neurons (anti-NeuN), oligodendrocytes (anti-RIP), astrocytes (anti-GFAP), or for microglia (isolectin GS-IB4). […]

TNF-α mRNA = TNF-α mRNA after SD in slice cultures; conditions: two hours after SD evoked every 7-9 minutes for an hour
Text: This prompted the inventors to examine whether insulin could reduce SD susceptibility by increasing CA3 pyramidal neuron bursting. The inventors induced SD trans-synaptically in rat HSC using electrical stimuli (100 μs pulses @ 10 Hz for 1 s) ranging from 1 to 10,000 nC in order to determine SD threshold in sham and experimental groups (Pusic et al., 2011). Results were based on n≥3-6/group. […] This insulin dose approximates the pharmacological levels seen in humans treated with nasal insulin. […] The inventors hypothesized that the effect of insulin occurred through IGF-1 receptor cross-talk.
After an hour of SD, slices were allowed to recover for 2 hours and then harvested for total RNA isolation and PCR amplification of cytokine targets. […] Next, dilution curve amplifications of primers were checked to be sure primers produced uniform amplification differences. For example, optimal amplifications show a uniform increase in Ct thresholds. In contrast, amplifications are not uniform with defective primers.
These positive samples were used for PCR array screening. Next, PCR array technology was used as a means more sensitive than traditional gene chips to look for evidence of T-cells in adult hippocampal slice cultures. The gene expression screen for inflammatory cytokine changes was completed by RT^2 Profiler™ PCR Arrays.

[2] = test system: CA3 pyramidal neuron spontaneous activity; test: Spontaneous CA3 pyramidal neuron spiking / bursting in slice cultures
Description: FIGS. 12a-12e IGF-1 increased spontaneous neuronal spiking activity. (FIG. 12a) Exemplary recording of unstimulated control CA3 pyramidal layer spontaneous electrophysiological activity. (FIG. 12b) Exemplary recording of 3-day IGF-1-exposed CA3 pyramidal layer spontaneous electrophysiological activity. […] Seven day treatments consisted of IGF-1 exposure for only 12 hours daily. Comparisons between groups made via ANOVA plus Holm-Sidak post hoc testing.

[3] = test system: CA3 area evoked excitability; parameters: key to evoked excitability response rating: a normal field potential (FP; left) was rated “1”; a FP that included stimulus-related bursting activity (center) was rated “2”; a stimulus that resulted in spreading depression (right) was rated is a “3”; conditions: for evoked excitability versus control: H2O2 exposure
Description: FIGS. 11a-11g IGF-1 decreased CA3 oxidative stress (OS) and its related hyperexcitability. […] Relative evoked excitability was determined as a sum of responses seen (e.g., responses of “2” and a “3” yielded an overall excitability score of five). […] (FIGS. 11d-e) Exemplary images of control (FIG. 11d) slice culture OS compared to increased slice OS induced by exposure to menadione (FIG. 11e). Calibration bar, 200 Dotted boxes indicate CA3 areas of interest used for relative OS quantifications (f and g).

Insulin-like growth factor 1 [IGF-1]
OS from SD in microglia [1]: decreased
astrocytic OS from SD [1]: unchanged
TNF-α mRNA levels (TNF-α mRNA): did not involve a change in TNF-α mRNA levels
spontaneous CA3 pyramidal neuron bursting versus control ([2]; 3-day IGF-1 treatment): increase in spontaneous CA3 pyramidal neuron bursting
spontaneous CA3 pyramidal neuron bursting versus control ([2]; 7-day IGF-1 treatment, 12 hours daily): increase in spontaneous CA3 pyramidal neuron bursting
spontaneous CA3 pyramidal neuron spiking versus control ([2]; acute IGF-1 treatment): increase in spontaneous CA3 pyramidal neuron spiking
evoked excitability versus control ([3]; without or with IGF-1 pretreatment for 3 days): abrogated; also recorded: non-significant difference from control
evoked excitability versus control ([3]; without or with acute IGF-1, 30 minutes after H2O2): abrogated
CA3 area evoked excitability ([3]; IGF-1 exposure alone): no significant impact
evoked excitability response rating ([3]; IGF-1 exposure alone): 1
